Results published in ChEMBL document CHEMBL2007661, “Compounds: GSK PKIS; Assays: UNC Frye lab” (2012).
“And” between values parts separate entries of the source, which are not always exact repeats. Equal entries are not always repeated.

Key:
[1] = molecular target: T1, Inhibitor of nuclear factor kappa-B kinase subunit epsilon (Homo sapiens) (UniProt Q14164); details: at 1 µM
T1 sequence (whole entry): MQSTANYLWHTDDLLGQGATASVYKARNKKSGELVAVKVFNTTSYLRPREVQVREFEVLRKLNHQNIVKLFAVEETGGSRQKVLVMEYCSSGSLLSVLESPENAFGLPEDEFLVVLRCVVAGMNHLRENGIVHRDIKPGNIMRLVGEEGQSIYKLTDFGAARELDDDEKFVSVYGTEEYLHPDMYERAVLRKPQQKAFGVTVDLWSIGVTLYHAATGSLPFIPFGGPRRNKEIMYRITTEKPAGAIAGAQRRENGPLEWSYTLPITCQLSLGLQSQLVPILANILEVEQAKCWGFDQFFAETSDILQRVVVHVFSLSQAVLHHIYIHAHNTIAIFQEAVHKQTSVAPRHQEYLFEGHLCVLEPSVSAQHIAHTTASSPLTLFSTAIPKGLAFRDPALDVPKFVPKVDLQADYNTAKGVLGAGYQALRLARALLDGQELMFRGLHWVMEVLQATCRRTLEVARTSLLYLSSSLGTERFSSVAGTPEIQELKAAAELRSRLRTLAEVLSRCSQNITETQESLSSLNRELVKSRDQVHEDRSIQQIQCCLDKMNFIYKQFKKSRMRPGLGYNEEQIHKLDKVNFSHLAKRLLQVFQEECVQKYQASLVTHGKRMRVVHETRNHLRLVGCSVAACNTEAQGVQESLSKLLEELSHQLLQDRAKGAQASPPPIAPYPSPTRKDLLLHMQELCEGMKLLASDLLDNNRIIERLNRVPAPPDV

[2] = molecular target: T2, Tyrosine-protein kinase Mer (Homo sapiens) (UniProt Q12866); details: at 10 µM
T2 sequence (whole entry): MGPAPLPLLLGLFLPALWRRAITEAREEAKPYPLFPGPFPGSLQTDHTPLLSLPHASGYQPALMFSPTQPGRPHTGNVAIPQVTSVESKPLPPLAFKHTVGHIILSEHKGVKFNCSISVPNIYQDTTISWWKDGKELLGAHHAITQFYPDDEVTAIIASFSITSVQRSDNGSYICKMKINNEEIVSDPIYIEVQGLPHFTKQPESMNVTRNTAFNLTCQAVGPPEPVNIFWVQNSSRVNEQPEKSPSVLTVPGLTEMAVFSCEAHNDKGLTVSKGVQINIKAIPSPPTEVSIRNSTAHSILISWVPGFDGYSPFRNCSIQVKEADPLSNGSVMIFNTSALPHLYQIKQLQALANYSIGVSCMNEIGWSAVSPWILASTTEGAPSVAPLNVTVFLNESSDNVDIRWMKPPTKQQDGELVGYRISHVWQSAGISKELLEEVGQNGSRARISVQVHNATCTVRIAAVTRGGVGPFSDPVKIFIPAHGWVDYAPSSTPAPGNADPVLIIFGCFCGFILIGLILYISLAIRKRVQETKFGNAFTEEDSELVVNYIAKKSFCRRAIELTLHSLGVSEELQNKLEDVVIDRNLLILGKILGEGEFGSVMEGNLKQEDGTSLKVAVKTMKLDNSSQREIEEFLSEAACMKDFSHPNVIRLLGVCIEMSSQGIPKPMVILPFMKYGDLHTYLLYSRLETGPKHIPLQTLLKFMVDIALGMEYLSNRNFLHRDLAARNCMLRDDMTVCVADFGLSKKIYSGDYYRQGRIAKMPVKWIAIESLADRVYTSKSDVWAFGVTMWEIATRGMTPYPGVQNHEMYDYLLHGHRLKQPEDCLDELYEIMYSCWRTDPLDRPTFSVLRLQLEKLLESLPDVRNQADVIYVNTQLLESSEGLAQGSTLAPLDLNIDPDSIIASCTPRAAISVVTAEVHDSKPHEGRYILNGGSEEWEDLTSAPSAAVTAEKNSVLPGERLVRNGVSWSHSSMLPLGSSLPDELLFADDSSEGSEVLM

Row | Structure (SMILES) | inhibition [1] | inhibition [2]
1 | FC(F)(F)c1cccc(-c2nn3ncccc3c2-c2ccnc(Nc3ccc4c(c3)OCCO4)n2)c1 | 3% and 0% | -2%
2 | CNC(=O)c1cncc(/C=C/c2c(C)cccc2C)c1 | 0% and -1% | -3%
3 | CN(C)c1cc2c(Nc3ccc4nc(Cc5ccccc5)[nH]c4c3)ncnc2cn1 | 0% and 6% | 2%
4 | CCn1c(-c2nonc2N)nc2c(C#CC(C)(C)O)nc(CN3CCCC3)cc21 | 52% and 51% | -6%
5 | Nc1ccc(C#Cc2cncnc2Nc2ccc(OCc3cccc(F)c3)c(Cl)c2)cc1 | -2% and 0% | 58%
6 | CCCN1CCCC(c2ccc(Nc3nc(Nc4cc(F)ccc4C(N)=O)c4cc[nH]c4n3)c(OC)c2)C1 (configuration not stated) | 11% and 9% | 5%
7 | NC(=O)c1cccc(Nc2nccc(Nc3cccc4[nH]ncc34)n2)c1 | 41% and 42% | 79%
8 | O=C1Nc2ccccc2/C1=C1\CCc2cc(O)ccc21 | 13% | 7%
9 | COc1cc2ncn(-c3cc(OCc4cccs4)c(C(N)=O)s3)c2cc1OC | 1% | 4%
10 | NS(=O)(=O)c1cccc(-c2cc3ccncc3cc2OCc2ccccc2)c1 | -3% and -1% | 74%
11 | O=C(O[C@H]1CN[C@H](C#Cc2cc3ncnc(Nc4ccc5c(ccn5Cc5cc(F)ccc5F)c4)c3s2)C1)N1CCOCC1 | 1% and -4% | 100%
12 | CN1CCN(CCCNc2nc3ccc(Oc4ccc(NC(=O)Nc5cc(C(F)(F)F)ccc5F)cc4)cc3[nH]2)CC1 | -2% | -1%
13 | CN(C)c1cc2c(Nc3ccc4c(cnn4Cc4ccccc4)c3)ncnc2cn1 | -2% | 10%
14 | CCN(CC)Cc1ccc(Nc2nccc(-c3cnn4ncccc34)n2)cc1 | 18% and 19% | 5%
15 | CS(=O)(=O)CCNCc1cc(-c2cc3c(Nc4ccc(OCc5cccc(F)c5)c(Cl)c4)ncnc3s2)cs1 | 0% and 2% | -5%
16 | NC(=O)c1ccc2c(-c3ccnc(NCCCO)n3)c(-c3ccc(F)cc3)nn2c1 | 1% and 0% | -4%
17 | COc1ccc2ncnc(Nc3ccc(OCc4ccccc4)cc3)c2c1 | 1% | -4%
18 | CCOc1nccc2c1nc(-c1nonc1N)n2CC | 2% and 0% | -3%
19 | NS(=O)(=O)c1cccc(N/C=C2\C(=O)Nc3ccccc32)c1 | 22% and 26% | 0%
20 | CS(=O)(=O)CCNCc1nc(-c2ccc3ncnc(Nc4ccc(F)c(Cl)c4)c3c2)cs1 | -3% and -1% | -6%
21 | O=C1Nc2ccc(I)cc2C1=Cc1cc(Br)c(O)c(Br)c1 | 3% and 2% | -2%
